The target in one assay is Protein Wnt-3a (Mus musculus, UniProt P27467). Briefly: Wnt3a-driven reporter signaling inhibition, dose response, selectivity assay for Gli-SUFU antagonist project, Wnt-LIGHT cells, luminescence (AID 651570).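 Note: Wnt-LIGHT reporter cells stimulated with conditioned medium from Wnt3a-producing cells.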 The assay is classed as functional. As to conditions: read-out: IC50_Mean.
For assay [1], the target named is Ras and Rab interactor 1/Tyrosine-protein kinase ABL1 (Homo sapiens, UniProt P00519+Q13671). It is filed as functional.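 Note: biochemical TR-FRET dose-response test measuring inhibition of binding between Rin1 and Abl proteins.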
The target in assay [2] is T1, Neuropeptide Y receptor type 2 (Homo sapiens, UniProt P49146).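 Note: HEK293 cells expressing the receptor and a CNG channel; stimulus was NPY near EC95 followed by isoproterenol to raise cAMP; antagonist potency measured as restoring cAMP signal that NPY suppresses.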
T1 sequence (P49146 whole entry): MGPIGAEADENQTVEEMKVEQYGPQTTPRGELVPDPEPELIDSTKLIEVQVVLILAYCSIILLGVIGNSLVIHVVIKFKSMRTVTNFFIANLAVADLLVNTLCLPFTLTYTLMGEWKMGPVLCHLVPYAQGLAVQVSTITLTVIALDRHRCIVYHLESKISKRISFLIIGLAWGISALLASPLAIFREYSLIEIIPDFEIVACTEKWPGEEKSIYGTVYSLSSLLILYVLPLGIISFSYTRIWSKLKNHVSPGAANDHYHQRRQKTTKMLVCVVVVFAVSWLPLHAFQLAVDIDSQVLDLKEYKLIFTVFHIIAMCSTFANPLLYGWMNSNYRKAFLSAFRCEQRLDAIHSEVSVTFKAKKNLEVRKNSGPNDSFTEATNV
It is filed as functional, cell-based.

The target in assay [3] is T2, Neuropeptide Y receptor type 1 (Homo sapiens, UniProt P25929).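 Note: HEK293 cells with a CNG channel challenged with NPY then isoproterenol; potency as antagonist that reverses NPY suppression of cAMP signal.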
T2 sequence (P25929 whole entry): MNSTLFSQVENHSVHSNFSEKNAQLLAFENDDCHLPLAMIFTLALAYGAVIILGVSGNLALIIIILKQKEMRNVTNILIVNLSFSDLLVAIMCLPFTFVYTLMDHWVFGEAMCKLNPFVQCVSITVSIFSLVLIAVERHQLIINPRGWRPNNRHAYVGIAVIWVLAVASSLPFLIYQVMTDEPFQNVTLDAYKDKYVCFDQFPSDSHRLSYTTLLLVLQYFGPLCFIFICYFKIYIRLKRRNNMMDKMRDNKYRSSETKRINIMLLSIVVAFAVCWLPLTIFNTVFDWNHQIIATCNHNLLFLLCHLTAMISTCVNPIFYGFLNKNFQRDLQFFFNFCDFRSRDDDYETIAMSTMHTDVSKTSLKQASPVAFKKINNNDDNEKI
It is filed as functional.

In assay [4] the target is T3, Mitochondrial peptide methionine sulfoxide reductase (Bos taurus, UniProt P54149).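 Note: absorbance read-out, biochemical high-throughput dose-response screen for MsrA inhibitors, confirmatory; recombinant bovine MsrA coupled to E. coli TrxB with NADPH and selenocystamine; potency is for inhibitors of MsrA activity on DMSO substrate.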
T3 sequence (P54149 whole entry): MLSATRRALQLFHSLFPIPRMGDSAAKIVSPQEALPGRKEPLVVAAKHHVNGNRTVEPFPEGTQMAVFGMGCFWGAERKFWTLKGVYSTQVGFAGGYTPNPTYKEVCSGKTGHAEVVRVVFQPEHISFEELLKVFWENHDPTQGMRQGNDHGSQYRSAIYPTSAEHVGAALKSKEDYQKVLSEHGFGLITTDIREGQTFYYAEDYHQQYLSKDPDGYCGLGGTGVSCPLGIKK
The assay is classed as functional.

Assay [5] concerns the target T4, Low molecular weight phosphotyrosine protein phosphatase (Homo sapiens, UniProt P24666). It is filed as functional. As to conditions: read-out: IC50_Mean.
Assay [6] deals with T4, Low molecular weight phosphotyrosine protein phosphatase. The assay is classed as functional. As to conditions: read-out: IC50_Mean. This is another data set of the same source.
Assay [7] has as its target T5, Sentrin-specific protease 1 (Homo sapiens, UniProt Q9P0U3).
T5 sequence (Q9P0U3 whole entry): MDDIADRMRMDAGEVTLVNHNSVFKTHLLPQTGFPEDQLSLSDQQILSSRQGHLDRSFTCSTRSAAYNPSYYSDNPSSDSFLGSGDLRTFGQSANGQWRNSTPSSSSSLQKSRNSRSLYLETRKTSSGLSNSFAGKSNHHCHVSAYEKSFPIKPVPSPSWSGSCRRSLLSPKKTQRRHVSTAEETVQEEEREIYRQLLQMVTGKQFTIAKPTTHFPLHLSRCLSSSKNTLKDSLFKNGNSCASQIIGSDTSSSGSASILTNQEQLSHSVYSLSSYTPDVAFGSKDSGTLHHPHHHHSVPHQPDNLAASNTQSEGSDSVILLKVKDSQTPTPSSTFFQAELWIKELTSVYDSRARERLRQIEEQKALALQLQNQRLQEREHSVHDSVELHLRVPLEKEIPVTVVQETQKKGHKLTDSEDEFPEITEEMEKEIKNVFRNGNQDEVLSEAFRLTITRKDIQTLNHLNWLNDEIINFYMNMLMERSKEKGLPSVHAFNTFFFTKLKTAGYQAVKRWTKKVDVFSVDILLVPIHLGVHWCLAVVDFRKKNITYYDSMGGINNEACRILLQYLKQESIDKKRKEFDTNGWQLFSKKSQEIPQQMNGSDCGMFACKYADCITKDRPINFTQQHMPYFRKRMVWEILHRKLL
Briefly: Dose response confirmation of small molecule inhibitors of the catalytic domain of the SUMO protease, SENP1 in a FRET assay. As to conditions: read-out: IC50_Mean. It is filed as functional.

The target of assay [8] is T5, Sentrin-specific protease 1. Description: potency of human SENP1 inhibitors, dose response, biochemical, kinetic FRET (AID 651697). The assay is classed as functional. As to conditions: read-out: IC50_Mean.
For assay [9], the target named is T6, Orexin/Hypocretin receptor type 1 (Homo sapiens, UniProt O43613).
T6 sequence (O43613 whole entry): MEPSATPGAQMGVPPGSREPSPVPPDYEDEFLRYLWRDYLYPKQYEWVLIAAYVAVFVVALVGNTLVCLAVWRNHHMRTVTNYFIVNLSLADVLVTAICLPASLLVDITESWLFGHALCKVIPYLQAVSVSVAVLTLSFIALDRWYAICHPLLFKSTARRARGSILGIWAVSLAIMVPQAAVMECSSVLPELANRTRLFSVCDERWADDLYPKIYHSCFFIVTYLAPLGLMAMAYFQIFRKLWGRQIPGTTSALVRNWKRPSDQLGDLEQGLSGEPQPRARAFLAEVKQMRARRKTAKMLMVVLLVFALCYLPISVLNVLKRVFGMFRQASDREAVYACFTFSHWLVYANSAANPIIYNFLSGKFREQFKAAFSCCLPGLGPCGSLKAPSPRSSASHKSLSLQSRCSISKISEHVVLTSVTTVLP
Briefly: Homogeneous Time Resolved Fluorescence (HTRF)-based cell-based high throughput dose response assay for antagonists of the orexin 1 receptor (OX1R; HCRTR1). [Related pubchem assays (depositor defined):AID434989, AID435008, AID463079, AID485270, AID492963, AID492964, AID492965, AID493232, AID504717, AID504718]. The assay is classed as functional.

The nature of assay [10]: Luminescence Cell-Based Dose Response HTS to Identify Inhibitors of 5'UTR Stem-Loop Driven Prion Protein mRNA Translation in H4 Neuroglioblastoma Cells. [Related pubchem assays: 1827 (Project Summary), 1813 (Primary HTS)]. It is filed as functional.
For another assay, the system named is CHO-K1. Description: Counterscreen for antagonists of the orexin 1 receptor (OX1R; HCRTR1): Homogeneous time resolved fluorescence (HTRF)-based cell-based dose response assay to identify antagonists of the parental CHO-K1 cell line. [Related pubchem assays (depositor defined):AID434989, AID435008, AID463079, AID485270, AID492963, AID492964, AID492965, AID493232, AID504699, AID504701]. The note with it: Cricetulus griseus. It is filed as functional.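 Note: potency for inhibition of ATP-stimulated IP1 production as antagonists.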

Assay [11] addresses T7, Orexin receptor type 2 (Homo sapiens, UniProt O43614).
T7 sequence (O43614 whole entry): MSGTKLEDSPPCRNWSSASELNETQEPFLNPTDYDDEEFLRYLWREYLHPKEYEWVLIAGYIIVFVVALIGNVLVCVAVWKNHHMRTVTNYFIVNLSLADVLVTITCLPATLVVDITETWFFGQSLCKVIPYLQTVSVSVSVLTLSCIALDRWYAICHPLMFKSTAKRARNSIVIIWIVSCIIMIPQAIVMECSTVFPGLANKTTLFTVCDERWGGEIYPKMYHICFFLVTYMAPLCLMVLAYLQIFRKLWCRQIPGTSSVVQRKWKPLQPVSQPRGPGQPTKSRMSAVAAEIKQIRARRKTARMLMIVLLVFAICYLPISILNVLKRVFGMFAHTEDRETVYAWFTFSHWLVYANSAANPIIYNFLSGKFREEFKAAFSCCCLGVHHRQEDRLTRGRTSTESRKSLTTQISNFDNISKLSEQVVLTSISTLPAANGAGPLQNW
Briefly: Counterscreen assay for antagonists of the orexin 1 receptor (OX1R; HCRTR1): Fluorescence-based cell-based dose response assay for antagonists of the orexin 2 receptor (OX2R; HCRTR2), run by assay provider. It is filed as functional.

The nature of assay [12]: Counterscreen for antagonists of the orexin 1 receptor (OX1R; HCRTR1): Fluorescence-based cell-based high throughput dose response assay to identify antagonists of the parental CHO cell line. [Related pubchem assays (depositor defined):AID434989, AID435008, AID463079, AID485270, AID492963, AID492964, AID492965, AID493232, AID504699, AID504701]. The assay is classed as functional.

Assay [13] in a line: HEp-2 cell cytotoxicity, dose response, cytotoxicity control for RSV inhibitor project, HTS (AID 2410). The assay is classed as functional. As to conditions: human respiratory syncytial virus.
The nature of assay [14]: inhibitors of firefly luciferase expression or activity, dose response, H4 neuroglioma cells, luminescence (AID 1990). It is filed as functional, cell-based.
The nature of assay [15]: inhibitors of SNCA 5'UTR-driven reporter translation, confirmation, H4 neuroglioma cells, luminescence (AID 1988). The assay is classed as functional, cell-based.
Assay [16] concerns the target T6, Orexin/Hypocretin receptor type 1. Description: Fluorescence-based cell-based high throughput dose response assay for antagonists of the orexin 1 receptor (OX1R; HCRTR1). [Related pubchem assays (depositor defined):AID434989, AID435008, AID463079, AID485270, AID492963, AID492964, AID492965, AID493232, AID504717, AID504718]. The assay is classed as functional.
Assay [17] concerns the target T7, Orexin receptor type 2. Briefly: Counterscreen assay for antagonists of the orexin 1 receptor (OX1R; HCRTR1): Homogeneous Time Resolved Fluorescence (HTRF)-based cell-based dose response assay for antagonists of the orexin 2 receptor (OX2R; HCRTR2), run by assay provider. The assay is classed as functional.
The target of assay [18] is T8, Heat shock factor protein 1 (Mus musculus, UniProt P38532).
T8 sequence (P38532 whole entry): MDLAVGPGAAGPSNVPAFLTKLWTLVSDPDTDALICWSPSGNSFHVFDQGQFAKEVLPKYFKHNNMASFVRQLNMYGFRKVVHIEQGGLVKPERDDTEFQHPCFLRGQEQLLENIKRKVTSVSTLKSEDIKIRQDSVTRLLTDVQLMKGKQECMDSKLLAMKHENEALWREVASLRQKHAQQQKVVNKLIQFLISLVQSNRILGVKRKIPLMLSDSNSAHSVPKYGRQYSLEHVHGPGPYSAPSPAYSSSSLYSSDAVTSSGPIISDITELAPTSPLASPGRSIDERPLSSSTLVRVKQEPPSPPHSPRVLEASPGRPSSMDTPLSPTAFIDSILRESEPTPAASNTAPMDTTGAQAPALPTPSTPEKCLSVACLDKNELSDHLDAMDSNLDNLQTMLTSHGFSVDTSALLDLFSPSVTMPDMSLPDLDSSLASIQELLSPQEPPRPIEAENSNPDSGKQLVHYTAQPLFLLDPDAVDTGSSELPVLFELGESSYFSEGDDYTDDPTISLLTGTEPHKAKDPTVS
Description: inhibition of MG132-induced HSE-luciferase signal, confirmation, cell-based, NIH3T3, luminescence, dose retest (AID 2382).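 Note: NIH3T3 fibroblasts with HSF1-driven luciferase reporter stressed by proteasome inhibitor MG132; luminescence from HSF1-driven luciferase expression after 8 hours of MG132 stress.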 It is filed as functional.

The target in assay [19] is T9, ATP-dependent translocase ABCB1 (Homo sapiens, UniProt P08183). Description: ABCG2 efflux pump inhibitor potency, dose response, Ig-MXP3 cells, JC-1, flow cytometry, set 2 (AID 504566).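 Note: flow cytometry median green fluorescence of retained JC-1 dye; potency of efflux pump inhibition measured as rising substrate retention.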 The note with it: read-out: EC50_MICROM_. The assay is classed as functional.
Assay [20] has as its target T9, ATP-dependent translocase ABCB1. Description: ABCB1 efflux inhibitor potency, dose response, Jurkat-DNR cells, JC-1, flow cytometry, set 2 (AID 504569).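 Note: potency of pump inhibitors that raise cellular JC-1 green fluorescence up to the nicardipine level.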 It is filed as functional. As to conditions: read-out: EC50_MICROM_.

Active and inactive are the calls of the source.

T9 sequence (P08183 whole entry): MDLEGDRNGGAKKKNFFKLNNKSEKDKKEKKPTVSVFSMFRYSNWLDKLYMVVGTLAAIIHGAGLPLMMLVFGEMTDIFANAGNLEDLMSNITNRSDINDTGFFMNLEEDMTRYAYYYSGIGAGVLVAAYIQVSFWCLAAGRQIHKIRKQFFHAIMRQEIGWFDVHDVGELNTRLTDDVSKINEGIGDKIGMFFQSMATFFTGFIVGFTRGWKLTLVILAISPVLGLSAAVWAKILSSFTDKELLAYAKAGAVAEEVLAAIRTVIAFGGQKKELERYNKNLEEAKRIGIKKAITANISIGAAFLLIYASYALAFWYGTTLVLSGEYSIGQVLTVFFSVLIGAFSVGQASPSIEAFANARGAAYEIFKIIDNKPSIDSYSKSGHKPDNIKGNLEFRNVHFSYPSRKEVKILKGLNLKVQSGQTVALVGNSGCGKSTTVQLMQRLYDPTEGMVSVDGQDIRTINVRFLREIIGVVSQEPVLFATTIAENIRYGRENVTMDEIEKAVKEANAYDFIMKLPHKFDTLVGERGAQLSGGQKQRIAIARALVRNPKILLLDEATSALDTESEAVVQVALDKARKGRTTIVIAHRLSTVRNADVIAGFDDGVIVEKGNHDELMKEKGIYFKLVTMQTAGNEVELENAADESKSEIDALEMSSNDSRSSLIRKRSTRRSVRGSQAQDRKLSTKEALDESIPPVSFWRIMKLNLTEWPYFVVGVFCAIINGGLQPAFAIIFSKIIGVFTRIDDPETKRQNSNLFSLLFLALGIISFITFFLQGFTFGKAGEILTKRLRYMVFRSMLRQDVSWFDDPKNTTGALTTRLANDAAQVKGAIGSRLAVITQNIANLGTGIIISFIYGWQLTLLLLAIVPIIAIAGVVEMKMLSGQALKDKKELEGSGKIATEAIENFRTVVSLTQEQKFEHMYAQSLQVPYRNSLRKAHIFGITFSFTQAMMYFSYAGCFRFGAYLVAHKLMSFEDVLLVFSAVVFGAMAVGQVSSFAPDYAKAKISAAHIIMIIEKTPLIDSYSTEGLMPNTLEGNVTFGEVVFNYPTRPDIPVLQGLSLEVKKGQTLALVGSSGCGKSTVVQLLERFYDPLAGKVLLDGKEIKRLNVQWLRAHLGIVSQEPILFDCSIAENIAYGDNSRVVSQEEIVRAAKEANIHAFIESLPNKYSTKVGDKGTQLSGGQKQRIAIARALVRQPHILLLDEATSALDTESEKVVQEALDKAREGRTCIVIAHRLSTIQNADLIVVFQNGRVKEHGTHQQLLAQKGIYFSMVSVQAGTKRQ
T4 sequence (P24666 whole entry): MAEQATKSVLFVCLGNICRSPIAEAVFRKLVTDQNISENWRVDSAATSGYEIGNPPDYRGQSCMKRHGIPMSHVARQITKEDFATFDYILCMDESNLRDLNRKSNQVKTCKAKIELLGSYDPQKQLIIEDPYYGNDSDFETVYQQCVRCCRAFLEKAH
Ras and Rab interactor 1/Tyrosine-protein kinase ABL1, sequence (P00519 whole entry): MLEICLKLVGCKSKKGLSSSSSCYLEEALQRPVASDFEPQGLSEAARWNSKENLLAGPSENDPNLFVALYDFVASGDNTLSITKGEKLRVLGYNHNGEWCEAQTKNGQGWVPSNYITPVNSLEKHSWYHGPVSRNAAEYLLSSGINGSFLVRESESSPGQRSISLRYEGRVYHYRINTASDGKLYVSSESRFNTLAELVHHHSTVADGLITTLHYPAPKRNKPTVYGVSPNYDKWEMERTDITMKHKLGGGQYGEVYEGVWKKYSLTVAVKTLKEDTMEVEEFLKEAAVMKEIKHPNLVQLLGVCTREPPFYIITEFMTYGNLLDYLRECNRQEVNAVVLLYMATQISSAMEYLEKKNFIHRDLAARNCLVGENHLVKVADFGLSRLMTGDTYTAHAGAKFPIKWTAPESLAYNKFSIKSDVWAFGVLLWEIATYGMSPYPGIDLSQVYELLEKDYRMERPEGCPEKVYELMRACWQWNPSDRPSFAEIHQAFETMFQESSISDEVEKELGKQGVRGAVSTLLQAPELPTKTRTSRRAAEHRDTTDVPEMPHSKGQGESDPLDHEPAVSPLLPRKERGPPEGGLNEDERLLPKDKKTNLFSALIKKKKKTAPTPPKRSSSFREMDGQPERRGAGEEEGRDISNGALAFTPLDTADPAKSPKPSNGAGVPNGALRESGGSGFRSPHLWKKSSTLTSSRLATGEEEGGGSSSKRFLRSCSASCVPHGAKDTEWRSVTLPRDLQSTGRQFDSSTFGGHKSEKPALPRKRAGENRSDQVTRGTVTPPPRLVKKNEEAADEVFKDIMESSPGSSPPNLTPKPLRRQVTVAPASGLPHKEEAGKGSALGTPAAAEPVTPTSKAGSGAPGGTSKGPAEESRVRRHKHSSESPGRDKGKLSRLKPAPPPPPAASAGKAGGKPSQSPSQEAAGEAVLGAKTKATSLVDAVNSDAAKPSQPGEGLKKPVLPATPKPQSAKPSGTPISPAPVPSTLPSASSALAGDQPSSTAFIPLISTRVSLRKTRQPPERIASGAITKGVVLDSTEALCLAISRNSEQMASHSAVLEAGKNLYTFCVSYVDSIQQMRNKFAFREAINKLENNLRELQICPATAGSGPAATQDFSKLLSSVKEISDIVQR
Ras and Rab interactor 1/Tyrosine-protein kinase ABL1, sequence (Q13671 whole entry): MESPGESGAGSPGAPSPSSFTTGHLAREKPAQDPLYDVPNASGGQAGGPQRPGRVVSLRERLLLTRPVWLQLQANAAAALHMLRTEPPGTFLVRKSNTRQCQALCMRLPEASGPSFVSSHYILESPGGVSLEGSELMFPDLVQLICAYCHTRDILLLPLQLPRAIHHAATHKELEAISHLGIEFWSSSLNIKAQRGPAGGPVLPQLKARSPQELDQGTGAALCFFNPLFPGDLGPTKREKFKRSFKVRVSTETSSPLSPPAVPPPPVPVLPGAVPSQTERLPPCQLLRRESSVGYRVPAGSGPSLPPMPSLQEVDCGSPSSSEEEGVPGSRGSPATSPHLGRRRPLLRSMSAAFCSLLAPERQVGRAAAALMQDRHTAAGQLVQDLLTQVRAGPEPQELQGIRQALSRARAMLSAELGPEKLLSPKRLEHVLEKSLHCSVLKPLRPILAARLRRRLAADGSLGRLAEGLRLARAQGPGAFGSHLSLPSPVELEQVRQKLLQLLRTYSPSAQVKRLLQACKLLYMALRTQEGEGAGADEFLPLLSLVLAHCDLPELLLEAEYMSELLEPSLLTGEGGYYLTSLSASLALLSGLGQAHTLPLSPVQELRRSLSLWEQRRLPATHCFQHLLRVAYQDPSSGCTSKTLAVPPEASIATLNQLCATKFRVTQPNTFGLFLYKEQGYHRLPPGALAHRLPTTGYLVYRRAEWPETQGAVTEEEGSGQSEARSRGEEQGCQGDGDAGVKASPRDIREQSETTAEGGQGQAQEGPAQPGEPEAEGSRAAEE
Protein Wnt-3a, sequence (P27467 whole entry): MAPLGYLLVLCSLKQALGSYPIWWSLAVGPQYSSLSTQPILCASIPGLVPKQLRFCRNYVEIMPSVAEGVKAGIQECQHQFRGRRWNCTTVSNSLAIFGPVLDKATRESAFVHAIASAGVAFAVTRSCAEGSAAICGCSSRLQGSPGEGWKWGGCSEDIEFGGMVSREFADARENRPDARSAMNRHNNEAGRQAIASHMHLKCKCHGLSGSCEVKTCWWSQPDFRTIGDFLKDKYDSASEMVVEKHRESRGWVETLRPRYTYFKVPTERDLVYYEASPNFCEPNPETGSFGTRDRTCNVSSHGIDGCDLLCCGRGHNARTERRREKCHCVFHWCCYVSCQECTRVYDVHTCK

Consider `Cc1ccc2c(c1)c(C)cc[n+]2Cc1ccccc1`, for which, on Protein Wnt-3a, the IC50 was 15.3 µM (active).

Turning to `Cc1cc(S(=O)(=O)N2CCN(C(=O)CCC(=O)N3CCOCC3)CC2)ccc1Br`, the IC50 in assay [1] is 21.5 µM (inactive).

Consider `CCc1nnc(S)n1/N=C/c1cc(Br)c(OC)cc1OC`, for which the results for the IC50 in assay [2], in assay [3] and in assay [4] were > 35 µM (not active), > 35 µM (not active) and 155 µM (inactive), respectively.

Take `Oc1c2c(nc3cc(-c4ccc(Cl)cc4)nn13)CCS2`: the figures for the IC50 in [5] and in assay [6] were 13.4 µM (active) and 16.3 µM (active), respectively.

As to `CCc1nnc(NC(=O)CCN2C(=O)/C(=C/c3cc(OC)c(OC)c(OC)c3)SC2=S)s1`, the IC50 in [7] is 13.3 µM (active); in assay [8] it was 29.9 µM (inactive).

As for `Cc1nc2c(ccc3nc(NC(=O)Cc4cccc5ccccc45)sc32)s1`, the IC50 is 1.45 µM (active) in assay [9]; > 66.2 µM (inactive) with CHO-K1; 17.6 µM (inactive) at Orexin receptor type 2 [11]; > 49.7 µM (inactive) in assay [12]; 5.34 µM (active) in assay [16]; > 50 µM (inactive) at Orexin receptor type 2 [17]. Further, the EC50 is > 120 µM (not active) in assay [10], 16.3 µM (active) in assay [14], > 60 µM (not active) in [15] and > 195 µM (not active) in [18]. Further, the CC50 in assay [13] is 12.2 µM (active).

Turning to `Cc1ccc(C)c(NP(=O)(Oc2ccccc2)Oc2ccccc2)c1`, the IC50 in assay [9] is 5.47 µM (active); in the assay with CHO-K1 it was > 66.2 µM (inactive); at Orexin receptor type 2 [11], > 88.8 µM (inactive); in [12], 49 µM (inactive); in assay [16] it was 26.3 µM (inactive); on Orexin receptor type 2 [17], > 50 µM (inactive).

As for `CC(C)(C)c1cc2nc(C(F)(F)F)cc(N3CCN(C(=O)c4cccs4)CC3)n2n1`, the EC50 in assay [19] is 1.59 µM (active); in [20], 6.06 µM (active).

The values above are taken from ChEMBL document CHEMBL1201862, “PubChem BioAssay data set” (2004).
